Columns and labels:
[1] = tested on: PTEN-deficient glioblastomas and metastatic renal cell carcinomas; conditions: patients with PTEN-deficient glioblastomas and metastatic renal cell carcinomas; cited from earlier work
[2] = tested on: pre-existing GI polyps in Lkb1^+/− mice
Experimental: Mouse Colony Maintenance, Treatment Regimen and Polyp Measurement. Lkb1^+/+ and Lkb1^+/− mice, maintained on an FVB/N genetic background, were monitored for the development of gastrointestinal polyps. Mice with clinical signs of disease were euthanized and necropsied. The groups were vehicle treated or RAPA treated mice. […] Polyps were scored and total polyp burden was measured).
After two months of treatment, polyp size and number in each mouse were quantitated.

For `CO[C@H]1C[C@@H]2CC[C@@H](C)[C@@](O)(O2)C(=O)C(=O)N2CCCC[C@H]2C(=O)O[C@H]([C@H](C)C[C@@H]2CC[C@@H](OC(=O)C(C)(CO)CO)[C@H](OC)C2)CC(=O)[C@H](C)/C=C(\C)[C@@H](O)[C@@H](OC)C(=O)[C@H](C)C[C@H](C)/C=C/C=C/C=C/1C` [Temsirolimus, temsirolimus], the clinical outcome [1] is listed as “palliative success”.

With `CO[C@H]1C[C@@H]2CC[C@@H](C)[C@@](O)(O2)C(=O)C(=O)N2CCCC[C@H]2C(=O)O[C@H]([C@H](C)C[C@@H]2CC[C@@H](O)[C@H](OC)C2)CC(=O)[C@H](C)/C=C(\C)[C@@H](O)[C@@H](OC)C(=O)[C@H](C)C[C@H](C)/C=C/C=C/C=C/1C` [rapamycin] the “reduction in the overall mass of polyps” value ([2]; Lkb1+/− mice treated vs untreated with rapamycin, two months) was 80%, the “mean polyp burden (total polyp burden)” value ([2]; Lkb1+/− mice, 10 mg/kg rapamycin i.p., two months, n=10, VEH 9.6±5.5, p=0.00026) was 2.0±1.2 and the mean polyp size ([2]; Lkb1+/− mice, n=10, VEH 4.4±0.8, p<0.0001) was 1.2±0.9. It also gave a mean polyp number ([2]; Lkb1+/− mice, visible polyps between 1 and 5 mm scored, n=10, VEH 5.3±1.8, p=0.00022) of 2.8±1.4.

Reference: patent US20120189544A1, “GASTROINTESTINAL DISEASE OR DISORDER IMAGING AND TREATMENT” (SALK INSTITUTE FOR BIOLOGICAL STUDIES, priority 2009, published 2012)
